Reference: the NIST ThermoML archive (doi:10.1021/je8008073)

Assay: wn = mass fraction of the nth substance listed
Conditions: Liquid; for mass density: Vibrating tube method; for viscosity: Falling or rolling sphere viscometry

CC(C)Cc1ccccc1 [(2-methylpropyl)benzene] + c1ccc2c(c1)CCCC2
Conditions | mass density [kg/m3] | viscosity [mPa·s]
293.15 K, 100 kPa, w2 = 0.5 | 907.9 | –
293.15 K, 2000 kPa, w2 = 0.5 | 909.1 | –
293.15 K, 4000 kPa, w2 = 0.5 | 910.3 | –
293.15 K, 6000 kPa, w2 = 0.5 | 911.6 | –
293.15 K, 8000 kPa, w2 = 0.5 | 913 | –
293.15 K, 10000 kPa, w2 = 0.5 | 914.3 | –
293.15 K, 12000 kPa, w2 = 0.5 | 915.4 | –
293.15 K, 14000 kPa, w2 = 0.5 | 916.6 | –
293.15 K, 16000 kPa, w2 = 0.5 | 917.7 | –
293.15 K, 18000 kPa, w2 = 0.5 | 918.8 | –
293.15 K, 20000 kPa, w2 = 0.5 | 920.1 | –
295.65 K, 100 kPa, w2 = 0.5 | 905.7 | –
295.65 K, 2000 kPa, w2 = 0.5 | 906.8 | –
295.65 K, 4000 kPa, w2 = 0.5 | 908.1 | –
295.65 K, 6000 kPa, w2 = 0.5 | 909.3 | –
295.65 K, 8000 kPa, w2 = 0.5 | 910.6 | –
295.65 K, 10000 kPa, w2 = 0.5 | 911.9 | –
295.65 K, 12000 kPa, w2 = 0.5 | 913.1 | –
295.65 K, 14000 kPa, w2 = 0.5 | 914.3 | –
295.65 K, 16000 kPa, w2 = 0.5 | 915.4 | –
295.65 K, 18000 kPa, w2 = 0.5 | 916.6 | –
295.65 K, 20000 kPa, w2 = 0.5 | 917.7 | –
298.15 K, 100 kPa, w2 = 0.48 | 901.3 | –
298.15 K, 100 kPa, w2 = 0.49 | 902.5 | –
298.15 K, 100 kPa, w2 = 0.5 | 903.6 | 1.33
298.15 K, 100 kPa, w2 = 0.51 | 905 | –
298.15 K, 100 kPa, w2 = 0.52 | 906 | –
298.15 K, 2000 kPa, w2 = 0.48 | 902.6 | –
298.15 K, 2000 kPa, w2 = 0.49 | 903.8 | –
298.15 K, 2000 kPa, w2 = 0.5 | 904.7 | –
298.15 K, 2000 kPa, w2 = 0.51 | 906.2 | –
298.15 K, 2000 kPa, w2 = 0.52 | 907.3 | –
298.15 K, 4000 kPa, w2 = 0.48 | 904 | –
298.15 K, 4000 kPa, w2 = 0.49 | 905.1 | –
298.15 K, 4000 kPa, w2 = 0.5 | 906.1 | 1.37
298.15 K, 4000 kPa, w2 = 0.51 | 907.6 | –
298.15 K, 4000 kPa, w2 = 0.52 | 908.8 | –
298.15 K, 6000 kPa, w2 = 0.48 | 905.3 | –
298.15 K, 6000 kPa, w2 = 0.49 | 906.4 | –
298.15 K, 6000 kPa, w2 = 0.5 | 907.5 | –
298.15 K, 6000 kPa, w2 = 0.51 | 908.8 | –
298.15 K, 6000 kPa, w2 = 0.52 | 910 | –
298.15 K, 8000 kPa, w2 = 0.48 | 906.6 | –
298.15 K, 8000 kPa, w2 = 0.49 | 907.7 | –
298.15 K, 8000 kPa, w2 = 0.5 | 908.8 | –
298.15 K, 8000 kPa, w2 = 0.51 | 910.1 | –
298.15 K, 8000 kPa, w2 = 0.52 | 911.2 | –
298.15 K, 10000 kPa, w2 = 0.48 | 907.8 | –
298.15 K, 10000 kPa, w2 = 0.49 | 909 | –
298.15 K, 10000 kPa, w2 = 0.5 | 910.1 | 1.43
298.15 K, 10000 kPa, w2 = 0.51 | 911.2 | –
298.15 K, 10000 kPa, w2 = 0.52 | 912.4 | –
298.15 K, 12000 kPa, w2 = 0.48 | 909 | –
298.15 K, 12000 kPa, w2 = 0.49 | 910.2 | –
298.15 K, 12000 kPa, w2 = 0.5 | 911.3 | –
298.15 K, 12000 kPa, w2 = 0.51 | 912.5 | –
298.15 K, 12000 kPa, w2 = 0.52 | 913.6 | –
298.15 K, 14000 kPa, w2 = 0.48 | 910.2 | –
298.15 K, 14000 kPa, w2 = 0.49 | 911.5 | –
298.15 K, 14000 kPa, w2 = 0.5 | 912.5 | –
298.15 K, 14000 kPa, w2 = 0.51 | 913.7 | –
298.15 K, 14000 kPa, w2 = 0.52 | 914.8 | –
298.15 K, 16000 kPa, w2 = 0.48 | 911.4 | –
298.15 K, 16000 kPa, w2 = 0.49 | 912.6 | –
298.15 K, 16000 kPa, w2 = 0.5 | 913.7 | –
298.15 K, 16000 kPa, w2 = 0.51 | 915 | –
298.15 K, 16000 kPa, w2 = 0.52 | 916 | –
298.15 K, 18000 kPa, w2 = 0.48 | 912.6 | –
298.15 K, 18000 kPa, w2 = 0.49 | 913.7 | –
298.15 K, 18000 kPa, w2 = 0.5 | 914.9 | –
298.15 K, 18000 kPa, w2 = 0.51 | 916.1 | –
298.15 K, 18000 kPa, w2 = 0.52 | 917.1 | –
298.15 K, 20000 kPa, w2 = 0.48 | 913.8 | –
298.15 K, 20000 kPa, w2 = 0.49 | 914.9 | –
298.15 K, 20000 kPa, w2 = 0.5 | 916.1 | –
298.15 K, 20000 kPa, w2 = 0.51 | 917.2 | –
298.15 K, 20000 kPa, w2 = 0.52 | 918.2 | –
300.65 K, 100 kPa, w2 = 0.5 | 901.5 | –
300.65 K, 2000 kPa, w2 = 0.5 | 902.9 | –
300.65 K, 4000 kPa, w2 = 0.5 | 904.2 | –
300.65 K, 6000 kPa, w2 = 0.5 | 905.4 | –
300.65 K, 8000 kPa, w2 = 0.5 | 906.8 | –
300.65 K, 10000 kPa, w2 = 0.5 | 908 | –
300.65 K, 12000 kPa, w2 = 0.5 | 909.2 | –
300.65 K, 14000 kPa, w2 = 0.5 | 910.4 | –
300.65 K, 16000 kPa, w2 = 0.5 | 911.6 | –
300.65 K, 18000 kPa, w2 = 0.5 | 912.8 | –
300.65 K, 20000 kPa, w2 = 0.5 | 914 | –
303.15 K, 100 kPa, w2 = 0.5 | 900 | –
303.15 K, 2000 kPa, w2 = 0.5 | 901.3 | –
303.15 K, 4000 kPa, w2 = 0.5 | 902.6 | –
303.15 K, 6000 kPa, w2 = 0.5 | 904 | –
303.15 K, 8000 kPa, w2 = 0.5 | 905.3 | –
303.15 K, 10000 kPa, w2 = 0.5 | 906.5 | –
303.15 K, 12000 kPa, w2 = 0.5 | 907.8 | –
303.15 K, 14000 kPa, w2 = 0.5 | 909 | –
303.15 K, 16000 kPa, w2 = 0.5 | 910.3 | –
303.15 K, 18000 kPa, w2 = 0.5 | 911.4 | –
303.15 K, 20000 kPa, w2 = 0.5 | 912.6 | –
